Laboratory results reported in the NIST ThermoML archive (doi:10.1021/acs.jced.6b01038).
Numbers after ± are expanded uncertainties.

Assays:
[1] = 298.15 K; 101.3 kPa; Liquid; Vibrating tube method
[2] = refractive index (Na D-line) (dimensionless); details: 298.15 K; 101.3 kPa; Liquid; Standard Abbe refractometry

| SMILES | mass density [1] [kg/m3] | refractive index [2] |
| --- | --- | --- |
| CCN(CC)CCO [(diethylamino)ethanol] | 880 ± 5 | 1.43833 ± 0.001 |
| CNCCCN [N-methyl-1,3-diaminopropane] | 848 ± 5 | 1.44564 ± 0.0012 |
| CN(CCO)CCO [N-methyldiethanolamine] | 1037 ± 2 | 1.4674 ± 0.0011 |
| O [water] |  | 1.33249 ± 0.001 |
